Measurements reported in patent US20250145642A1, “BICYCLIC HETEROARENES AND METHODS OF THEIR USE” (Kineta, Inc., priority 2021, published 2025).

target: full-length human PIKFYVE (N-terminal GST-fusion) (Homo sapiens (Human), UniProt Q9Y2I7, L932S/Q1183K/Q995L/S1033A/S696N/T998S); assay: PIKfyve biochemical assay (ADP-Glo Kinase assay, Carna Biosciences); conditions: ADP-Glo, full-length human GST-PIKFYVE, 10 μM to 3 nM; read-out: hPIKfyve IC50
Text: (§1) PIKfyve Biochemical Assay. The biochemical PIKfyve inhibition assays were run by Carna Biosciences according to proprietary methodology based on the Promega ADP-Glo™ Kinase assay. A full-length human PIKFYVE [1-2098(end) amino acids and S696N, L932S, Q995L, T998S, S1033A and Q1183K of the protein having the sequence set forth in NCBI Reference Sequence No. NP_055855.2] was expressed as N-terminal GST-fusion protein (265 kDa) using baculovirus expression system. GST-PIKFYVE was purified by using glutathione sepharose chromatography and used in an ADP-Glo™ Kinase assay (Promega). Reactions were set up by adding the test compound solution, substrate solution, ATP solution and kinase solution, each at 4× final concentrations. Reactions were prepared with assay buffer (50 mM MOPS, 1 mM DTT, pH7.2), mixed, and incubated in black 384 well polystyrene plates for 1 hour at room temperature. ADP-Glo™ reagent was then added for 40 minutes, followed by kinase detection reagent for an additional 40 minutes. The kinase activity was evaluated by detecting relative light units on a luminescence plate reader. Samples were run in duplicate from 10 μM to 3 nM. […] IC50 values were calculated from concentration vs % inhibition curves by fitting to a four-parameter logistic curve.
as §1, with “The” for “PIKfyve Biochemical Assay. The”, “accession number” for “the protein having the sequence set forth in NCBI Reference Sequence No.”, “curve. […]” for “curve.”

full-length human PIKFYVE (N-terminal GST-fusion), sequence (Q9Y2I7 whole entry S696N/L932S/Q995L/T998S/S1033A/Q1183K, the tested form may be a part): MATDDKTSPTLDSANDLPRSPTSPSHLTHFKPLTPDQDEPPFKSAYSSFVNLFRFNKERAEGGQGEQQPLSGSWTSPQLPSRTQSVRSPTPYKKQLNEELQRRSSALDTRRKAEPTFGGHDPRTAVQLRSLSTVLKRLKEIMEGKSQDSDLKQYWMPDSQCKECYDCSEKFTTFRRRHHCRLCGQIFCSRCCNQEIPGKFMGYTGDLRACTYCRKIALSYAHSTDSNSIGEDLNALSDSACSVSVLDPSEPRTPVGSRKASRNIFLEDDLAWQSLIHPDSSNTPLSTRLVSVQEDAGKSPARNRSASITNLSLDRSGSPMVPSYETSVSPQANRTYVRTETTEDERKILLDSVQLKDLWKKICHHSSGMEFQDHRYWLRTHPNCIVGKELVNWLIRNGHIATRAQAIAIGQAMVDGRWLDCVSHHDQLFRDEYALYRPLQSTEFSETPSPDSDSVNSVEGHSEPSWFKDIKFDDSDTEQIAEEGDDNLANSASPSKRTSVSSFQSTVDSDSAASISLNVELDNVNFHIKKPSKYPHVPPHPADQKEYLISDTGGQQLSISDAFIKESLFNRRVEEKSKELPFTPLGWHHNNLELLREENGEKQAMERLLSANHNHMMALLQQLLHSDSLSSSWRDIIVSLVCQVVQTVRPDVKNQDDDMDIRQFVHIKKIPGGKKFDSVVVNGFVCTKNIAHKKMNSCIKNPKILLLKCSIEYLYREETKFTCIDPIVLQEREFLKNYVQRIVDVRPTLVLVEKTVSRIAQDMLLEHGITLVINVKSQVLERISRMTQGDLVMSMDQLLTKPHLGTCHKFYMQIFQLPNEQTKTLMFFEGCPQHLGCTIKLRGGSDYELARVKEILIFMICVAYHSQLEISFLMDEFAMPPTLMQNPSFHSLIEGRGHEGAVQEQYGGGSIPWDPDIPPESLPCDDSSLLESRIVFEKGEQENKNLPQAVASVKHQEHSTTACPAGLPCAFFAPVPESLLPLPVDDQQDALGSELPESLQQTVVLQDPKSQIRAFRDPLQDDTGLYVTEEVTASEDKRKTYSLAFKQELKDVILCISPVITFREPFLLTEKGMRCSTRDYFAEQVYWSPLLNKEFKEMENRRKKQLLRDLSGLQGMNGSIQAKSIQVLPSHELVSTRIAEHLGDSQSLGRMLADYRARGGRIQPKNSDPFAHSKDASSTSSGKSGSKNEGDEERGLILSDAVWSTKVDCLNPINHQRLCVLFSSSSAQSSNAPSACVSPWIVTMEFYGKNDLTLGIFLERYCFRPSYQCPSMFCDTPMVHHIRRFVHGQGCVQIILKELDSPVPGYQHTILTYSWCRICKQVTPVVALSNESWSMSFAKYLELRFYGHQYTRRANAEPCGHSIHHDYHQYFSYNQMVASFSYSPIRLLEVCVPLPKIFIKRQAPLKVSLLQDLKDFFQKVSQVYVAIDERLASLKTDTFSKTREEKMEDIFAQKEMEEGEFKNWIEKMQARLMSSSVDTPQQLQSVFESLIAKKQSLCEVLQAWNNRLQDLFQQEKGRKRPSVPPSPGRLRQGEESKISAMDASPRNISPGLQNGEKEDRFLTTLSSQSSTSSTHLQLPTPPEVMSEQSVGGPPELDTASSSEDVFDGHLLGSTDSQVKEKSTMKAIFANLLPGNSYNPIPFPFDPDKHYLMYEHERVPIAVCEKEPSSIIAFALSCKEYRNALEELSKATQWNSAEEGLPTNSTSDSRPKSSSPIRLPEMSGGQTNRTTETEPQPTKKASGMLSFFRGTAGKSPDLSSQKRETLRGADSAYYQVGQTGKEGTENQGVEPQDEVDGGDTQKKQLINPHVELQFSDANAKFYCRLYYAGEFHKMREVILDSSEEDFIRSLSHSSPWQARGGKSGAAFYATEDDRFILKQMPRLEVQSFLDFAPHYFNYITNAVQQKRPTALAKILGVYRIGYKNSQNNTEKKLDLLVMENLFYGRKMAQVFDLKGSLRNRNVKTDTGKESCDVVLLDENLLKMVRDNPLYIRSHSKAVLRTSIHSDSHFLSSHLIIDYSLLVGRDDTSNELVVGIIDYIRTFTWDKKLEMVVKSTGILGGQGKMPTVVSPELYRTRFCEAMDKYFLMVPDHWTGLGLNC

First: CCN1CCCC(COc2nc(N3CCOCC3)nc3c2CCN3c2cccnc2)C1 (stereo not shown) [Compound 10, 4-(4-((1-ethylpiperidin-3-yl)methoxy)-7-(pyridin-3-yl)-6,7-dihydro-5H-pyrrolo[2,3-d]pyrimidin-2-yl)morpholine]
Second: c1cc(N2CCc3c(-c4ccoc4)nc(N4CCOCC4)nc32)cnn1 [Compound 96, 4-(4-(furan-3-yl)-7-(pyridazin-4-yl)-6,7-dihydro-5H-pyrrolo[2,3-d]pyrimidin-2-yl)morpholine]
The IC50 of the first is higher: 100 to 1000 nM for the first, 10 to 100 nM for the second.

First: CC(C)(C)OC(=O)N1CC(c2nc(N3CCOCC3)nc3c2CCN3c2ccccc2)C1 [Compound 113, tert-butyl 3-(2-morpholino-7-phenyl-6,7-dihydro-5H-pyrrolo[2,3-d]pyrimidin-4-yl)azetidine-1-carboxylate]
Second: c1ccc(N2CCc3c(Oc4cccnc4)nc(N4CCOCC4)nc32)cc1 [Compound 53, 4-(7-phenyl-4-(pyridin-3-yloxy)-6,7-dihydro-5H-pyrrolo[2,3-d]pyrimidin-2-yl)morpholine]
The IC50 of the first is lower: < 10 nM for the first, 10 to 100 nM for the second.

First: 4-(7-(3-fluorophenyl)-4-(pyridin-3-ylmethoxy)-6,7-dihydro-5H-pyrrolo[2,3-d]pyrimidin-2-yl)morpholine [Compound 3]
Second: c1cncc(N2CCc3c(OCCC4CCCO4)nc(N4CCOCC4)nc32)c1 (stereo not shown) [Compound 31, 4-(7-(pyridin-3-yl)-4-(2-(tetrahydrofuran-2-yl)ethoxy)-6,7-dihydro-5H-pyrrolo[2,3-d]pyrimidin-2-yl)morpholine]
The IC50 of the first is higher: 100 to 1000 nM for the first, 10 to 100 nM for the second.

Compared with `COc1cccc(C#Cc2nc(N3CCOCC3)nc3c2CCN3c2cccnc2)c1` [Compound 85, 4-(4-((3-methoxyphenyl)ethynyl)-7-(pyridin-3-yl)-6,7-dihydro-5H-pyrrolo[2,3-d]pyrimidin-2-yl)morpholine], `COc1nc(N2CCOCC2)nc2c1CCN2c1ccccc1` [Compound 48, 4-(4-methoxy-7-phenyl-6,7-dihydro-5H-pyrrolo[2,3-d]pyrimidin-2-yl)morpholine] is lower in IC50: 100 to 1000 nM for the first, 10 to 100 nM for the second.

`c1ccc(-c2cncc(Oc3nc(N4CCOCC4)nc4c3CCN4c3cccnc3)c2)cc1` [Compound 75, 4-(4-((5-phenylpyridin-3-yl)oxy)-7-(pyridin-3-yl)-6,7-dihydro-5H-pyrrolo[2,3-d]pyrimidin-2-yl)morpholine] and `c1ccc(-c2ccn(-c3nc(N4CCOCC4)nc4c3CCN4c3ccncc3)n2)cc1` [Compound 84, 4-(4-(3-phenyl-1H-pyrazol-1-yl)-7-(pyridin-4-yl)-6,7-dihydro-6H-pyrrolo[2,3-d]pyrimidin-2-yl)morpholine] fall in the same range of IC50: 10 to 100 nM for the first, 10 to 100 nM for the second.

First: Oc1ccc[n+](Cc2nc(N3CCOCC3)nc3c2CCN3c2ccccc2)c1 [Compound 60, 5-hydroxy-1-((2-morpholino-7-phenyl-6,7-dihydro-5H-pyrrolo[2,3-d]pyrimidin-4-yl)methyl)pyridin-1-ium-3-ylium]
Second: c1cncc(-c2nc(N3CCOCC3)nc3c2CCN3c2ccc3c(c2)OCCO3)c1 [Compound 103, 4-(7-(2,3-dihydrobenzo[b][1,4]dioxin-6-yl)-4-(pyridin-3-yl)-6,7-dihydro-5H-pyrrolo[2,3-d]pyrimidin-2-yl)morpholine]
The IC50 of the first is higher: 100 to 1000 nM for the first, < 10 nM for the second. The second is the more potent here.

`c1cc(-c2nc(N3CCOCC3)nc3c2CCN3C2CCOCC2)ccn1` [Compound 95, 4-(4-(pyridin-4-yl)-7-(tetrahydro-2H-pyran-4-yl)-6,7-dihydro-5H-pyrrolo[2,3-d]pyrimidin-2-yl)morpholine] and `OCCn1cc(-c2cccc(-n3cccn3)c2)c2nc(N3CCOCC3)nc(-c3ccncc3)c21` [Compound 149, 2-(7-(3-(1H-pyrazol-1-yl)phenyl)-2-morpholino-4-(pyridin-4-yl)-6H-pyrrolo[3,2-d]pyrimidin-5-yl)ethan-1-ol] fall in the same range of IC50: 100 to 1000 nM for the first, 100 to 1000 nM for the second.

Compared with `c1cncc(-c2nc(N3CCOCC3)nc3c2CCN3c2ccc3c(c2)OCO3)c1` [Compound 102, 4-(7-(benzo[d][1,3]dioxol-5-yl)-4-(pyridin-3-yl)-6,7-dihydro-5H-pyrrolo[2,3-d]pyrimidin-2-yl)morpholine], `c1ccc(N2CCc3c(C4CCOCC4)nc(N4CCOCC4)nc32)cc1` [Compound 86, 4-(7-phenyl-4-(tetrahydro-2H-pyran-4-yl)-6,7-dihydro-5H-pyrrolo[2,3-d]pyrimidin-2-yl)morpholine] is higher in IC50: 10 to 100 nM for the first, 100 to 1000 nM for the second.

`CN1CCCC(CCOc2nc(N3CCOCC3)nc3c2CCN3c2cccnc2)C1` (stereo not shown) [Compound 11, 4-(4-(2-(1-methylpiperidin-3-yl)ethoxy)-7-(pyridin-3-yl)-6,7-dihydro-5H-pyrrolo[2,3-d]pyrimidin-2-yl)morpholine] and `c1cncc(N2CCc3c(N4Cc5ccccc5C4)nc(N4CCOCC4)nc32)c1` [Compound 80, 4-(4-(isoindolin-2-yl)-7-(pyridin-3-yl)-6,7-dihydro-5H-pyrrolo[2,3-d]pyrimidin-2-yl)morpholine] fall in the same range of IC50: 10 to 100 nM for the first, 10 to 100 nM for the second.

First: c1cncc(N2CCc3c(-c4ccoc4)nc(N4CCOCC4)nc32)c1 [Compound 88, 4-(4-(furan-3-yl)-7-(pyridin-3-yl)-6,7-dihydro-6H-pyrrolo[2,3-d]pyrimidin-2-yl)morpholine]
Second: O=c1ccccn1-c1nc(N2CCOCC2)nc2c1CCN2c1ccccc1 [Compound 50, 1-(2-morpholino-7-phenyl-6,7-dihydro-5H-pyrrolo[2,3-d]pyrimidin-4-yl)pyridin-2(1H)-one]
The IC50 of the first is lower: 10 to 100 nM for the first, 100 to 1000 nM for the second.

First: c1ccc(-c2c[nH]c3c(-c4ccncc4)nc(N4CCOCC4)nc23)nc1 [Compound 136, 4-(7-(pyridin-2-yl)-4-(pyridin-4-yl)-6H-pyrrolo[3,2-d]pyrimidin-2-yl)morpholine]
Second: OCC(O)COc1nc(N2CCOCC2)nc2c1CCN2c1ccccc1 (stereo not shown) [Compound 43, 3-((2-morpholino-7-phenyl-6,7-dihydro-6H-pyrrolo[2,3-d]pyrimidin-4-yl)oxy)propane-1,2-diol]
The IC50 of the first is lower: 10 to 100 nM for the first, 100 to 1000 nM for the second.

Compared with `c1ccc(-n2cc(N3CCc4c(Oc5cccnc5)nc(N5CCOCC5)nc43)nn2)cc1` [Compound 69, 4-(7-(1-phenyl-1H-1,2,3-triazol-4-yl)-4-(pyridin-3-yloxy)-6,7-dihydro-5H-pyrrolo[2,3-d]pyrimidin-2-yl)morpholine], `c1cncc(N2CCc3c(OCC4CNC4)nc(N4CCOCC4)nc32)c1` [Compound 38, 4-(4-(azetidin-3-ylmethoxy)-7-(pyridin-3-yl)-6,7-dihydro-5H-pyrrolo[2,3-d]pyrimidin-2-yl)morpholine] is higher in IC50: 10 to 100 nM for the first, 100 to 1000 nM for the second.

`c1ccc(N2CCc3c(C4CCNCC4)nc(N4CCOCC4)nc32)cc1` [Compound 111, 4-(7-phenyl-4-(piperidin-4-yl)-6,7-dihydro-5H-pyrrolo[2,3-d]pyrimidin-2-yl)morpholine] and `CC(=O)N1CCC(COc2nc(N3CCOCC3)nc3c2CCN3c2cccnc2)C1` (stereo not shown) [Compound 36, 1-(3-(((2-morpholino-7-(pyridin-3-yl)-6,7-dihydro-5H-pyrrolo[2,3-d]pyrimidin-4-yl)oxy)methyl)pyrrolidin-1-yl)ethan-1-one] fall in the same range of IC50: 100 to 1000 nM for the first, 100 to 1000 nM for the second.

Compared with `c1cncc(N2CCc3c(-c4ccnnc4)nc(N4CCOCC4)nc32)c1` [Compound 97], `c1ccc(-n2ccc(N3CCc4c(Oc5cccnc5)nc(N5CCOCC5)nc43)n2)cc1` [Compound 70, 4-(7-(1-phenyl-1H-pyrazol-3-yl)-4-(pyridin-3-yloxy)-6,7-dihydro-5H-pyrrolo[2,3-d]pyrimidin-2-yl)morpholine] is higher in IC50: 10 to 100 nM for the first, 1000 to 10000 nM for the second. The first is the more potent here.
